Values quoted from earlier work in patent US11235023B2, “Beta-hairpin peptidomimetic with elastase inhibitory activity and aerosol dosage forms thereof” (POLYPHOR AG, priority 2016, dated 2022).

Key:
[1] = target: T1, neutrophil elastase (Mus musculus, UniProt Q3UP87); conditions: mouse model of neutrophil allergen challenge; cited from earlier work
T1 sequence (Q3UP87 27-265): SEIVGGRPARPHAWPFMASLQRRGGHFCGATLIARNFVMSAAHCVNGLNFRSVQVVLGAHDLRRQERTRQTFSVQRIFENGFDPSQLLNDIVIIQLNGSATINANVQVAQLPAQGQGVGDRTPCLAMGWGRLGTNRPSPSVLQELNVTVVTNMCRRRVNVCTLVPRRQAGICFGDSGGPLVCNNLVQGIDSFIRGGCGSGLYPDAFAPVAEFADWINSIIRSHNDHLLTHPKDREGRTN

[2] = system: elastase; conditions: nasal instillation, CD-1 mice; cited from earlier work

Compound	Effect on airway hyperresponsiveness and inflammation [1]	Protection against elastase-mediated injury [2]
CC(C)(C)C(=O)Oc1ccc(S(=O)(=O)Nc2ccccc2C(=O)NCC(=O)O)cc1 [sivelelstat]	attenuates airway hyperresponsiveness and inflammation	
rhalpha1PI: recombinant form of the elastase inhibitor alpha-1-proteinase inhibitor (alpha1PI)		highly protective
